In article PMC5784245, “An Optimized Synthetic-Bioinformatic Natural Product Antibiotic Sterilizes Multidrug-Resistant Acinetobacter baumannii-Infected Wounds” (mSphere, 2018):
In brackets after ≈: the same amount, converted by molar mass. Non-standard residues stand in square brackets, D forms with d. Residues, ends and D or L forms follow the SMILES beside them. dOrn = NCCC[C@@H](N)C(=O)O; Orn = NCCC[C@H](N)C(=O)O

Legend:
C. albicans = assay: Toxicity assessment, MIC against C. albicans; format: cell-based, Candida albicans; conditions: Brady lab strain; yeast extract-peptone-dextrose; surrogate for cytotoxicity; duplicate
Description: Wang resins were purchased from Matrix Innovation. Reagents for peptide synthesis were purchased from P3 BioSystems, Chempep, and Chem-Impex International. The fluorescent dyes DiBAC4 and SYTOX were purchased from Thermo Fisher Scientific, and media were prepared from premixed powders: brain heart infusion for S. sobrinus and L. rhamnosus (Hardy Diagnostics), yeast extract-peptone-dextrose for C. albicans, lysogeny broth (LB) for all other bacteria (BD Biosciences), and McCoy’s 5A medium with 10% fetal bovine serum for HT-29 cells (American Type Culture Collection). All other chemicals and consumables were purchased from Sigma-Aldrich and VWR International. Paenimucillin 4F for in vivo studies was purchased from Ontores Biotechnologies as a high-performance liquid chromatography (HPLC)-purified peptide and used as is. Dye assays were performed in a Gen5 microtiter plate reader (Biotek Instruments). […]
Standard susceptibility assays were performed in LB medium in 96-well microtiter plates to determine the MIC by the broth microdilution method in accordance with protocols recommended by Clinical and Laboratory Standards Institute ([35]). Cytotoxicity was assessed using human HT-29 cells based on a similar broth microdilution method ([36]). […] Cell viability was determined by visual inspection.

[1] = tested on: A. baumannii clinical isolate 1790; format: cell-based, Acinetobacter baumannii; conditions: clinical isolate 1790, 24 h
Description: (§1) Wang resins were purchased from Matrix Innovation. Reagents for peptide synthesis were purchased from P3 BioSystems, Chempep, and Chem-Impex International. The fluorescent dyes DiBAC4 and SYTOX were purchased from Thermo Fisher Scientific, and media were prepared from premixed powders: brain heart infusion for S. sobrinus and L. rhamnosus (Hardy Diagnostics), yeast extract-peptone-dextrose for C. albicans, lysogeny broth (LB) for all other bacteria (BD Biosciences), and McCoy’s 5A medium with 10% fetal bovine serum for HT-29 cells (American Type Culture Collection). All other chemicals and consumables were purchased from Sigma-Aldrich and VWR International. Paenimucillin 4F for in vivo studies was purchased from Ontores Biotechnologies as a high-performance liquid chromatography (HPLC)-purified peptide and used as is. Dye assays were performed in a Gen5 microtiter plate reader (Biotek Instruments). Liquid chromatography-mass spectrometry (LC-MS) analyses were performed by using an Acquity system (Waters Corporation).
(§2) Standard susceptibility assays were performed in LB medium in 96-well microtiter plates to determine the MIC by the broth microdilution method in accordance with protocols recommended by Clinical and Laboratory Standards Institute ([35]). Cytotoxicity was assessed using human HT-29 cells based on a similar broth microdilution method ([36]). All assays were performed in duplicate. For the cytotoxicity assay, 5,000 HT-29 cells per well were seeded into a microtiter plate and cultured for 24 h at 37°C in a 5% CO2 atmosphere. Peptides were supplemented at concentrations ranging from 128 to 0.5 μg/ml, and the cells were incubated for another 20 h. Growth media were removed, 3-(4,5-dimethylthiazol-2-yl)-2,5-diphenyltetrazolium bromide (MTT) was added to all wells (220 μl per well at 0.5 mg/ml), the mixture was incubated for 4 h, and then the media were discarded. Cell viability was determined by visual inspection.

[2] = tested on: A. baumannii clinical isolate S5; format: cell-based, Acinetobacter baumannii; conditions: clinical isolate S5, 24 h
Description: as §1, §2

[3] = tested on: A. baumannii clinical isolate 1797; format: cell-based, Acinetobacter baumannii; conditions: clinical isolate 1797, 24 h
Description: as §1, §2

[4] = tested on: A. baumannii clinical isolate S3; format: cell-based, Acinetobacter baumannii; conditions: clinical isolate S3, 24 h
Description: as §1, §2

[5] = tested on: A. baumannii clinical isolate 1791; format: cell-based, Acinetobacter baumannii; conditions: clinical isolate 1791, 24 h
Description: as §1, §2

[6] = tested on: A. baumannii clinical isolate 1788; format: cell-based, Acinetobacter baumannii; conditions: clinical isolate 1788, 24 h
Description: as §1, §2

[7] = tested on: A. baumannii clinical isolate 1795; format: cell-based, Acinetobacter baumannii; conditions: clinical isolate 1795, 24 h
Description: as §1, §2

Pseudomonas aeruginosa = format: cell-based; conditions: 24 h
Description: as §1, §2

Bacillus subtilis = format: cell-based; conditions: 24 h
Description: as §1, §2

Acinetobacter baumannii = format: cell-based; conditions: 24 h
Description: as §1, §2

Enterococcus faecium = format: cell-based; conditions: 24 h
Description: as §1, §2

Enterobacter cloacae = format: cell-based; conditions: 24 h
Description: as §1, §2

Enterococcus faecalis = format: cell-based; conditions: 24 h
Description: as §1, §2

Lactobacillus rhamnosus = format: cell-based; conditions: 24 h
Description: as §1, §2

Streptococcus sobrinus = format: cell-based; conditions: 24 h
Description: as §1, §2

Klebsiella pneumoniae = format: cell-based; conditions: 24 h
Description: as §1, §2

Staphylococcus aureus = format: cell-based; conditions: 24 h
Description: as §1, §2

A. baumannii [8] = assay: Pore formation assay (SYTOX); format: cell-based, Acinetobacter baumannii; conditions: 4× MIC (8 μg/ml), SYTOX fluorescence
[9] = Rat cutaneous wound model, tolerability; format: in vivo, Sprague-Dawley rats; conditions: uninfected wounded rats, topical 10 mg/ml
Description: The rat cutaneous wound model was used as described previously ([21]). Protocols for animal studies were approved by the Rutgers University Institutional Animal Care and Use Committee. All animals were humanely euthanized at the study endpoint by following the AVMA Guidelines for the Euthanasia of Animals. Immunocompetent Sprague-Dawley female rats (~200 g) were anesthetized by intraperitoneal injection of 100 mg/kg ketamine plus 10 mg/kg xylazine. Using a 1.0-cm-diameter disposable biopsy punch, two symmetrical wounds were created on the dorsum of each rat. A circular gauze dressing 8 mm in diameter was saturated overnight with either vehicle or 4F at 10 mg/ml in sterile centrifuge tubes. To assess tolerability, the rats were weighed daily and observed for wound healing, behavior changes, and visible adverse drug effects for 5 days. To assess efficacy, A. baumannii strain AB5075 was grown overnight and the culture was diluted to provide the challenge inoculum (500 CFU) as 50 μl of bacterial suspension in 0.9% (wt/vol) NaCl. A circular gauze dressing 8 mm in diameter was saturated overnight with vehicle, tetracycline, or 4F at 10 mg/ml in sterile centrifuge tubes. These saturated dressings were topically applied to the wound site with sterile forceps twice daily, starting at 30 min postinoculation, for 6 days. […]

A. baumannii [10] = assay: Membrane depolarization assay (DiBAC4); format: cell-based, Acinetobacter baumannii; conditions: 4× MIC (8 μg/ml); DiBAC4 fluorescence at endpoint of assay; polymyxin at 4× MIC
Description: In a membrane depolarization assay ([31]), A. baumannii colonies were scraped off an agar plate and suspended in LB to optical density at 600 nm (OD600) of 0.5 to 0.6. The resulting suspension (1.8 ml) was mixed 9:1 with DiBAC4 (20 μg/ml), incubated at room temperature for 5 min, and monitored at 2-s intervals (excitation/emission, 492/515 nm) for 2 min. Various solutions were added (10 μl) while the fluorescence signal was continually being monitored. Paenimucillin C was tested at final concentrations of 2× and 4× its MIC, and polymyxin B and DMSO were used as positive and negative controls, respectively. The treated cultures were then monitored at 2-s intervals for another 5 min. Pore formation assays ([32]) were performed in the same way, except that Triton X-100 was used as the positive control at a final concentration of 0.25% (wt/vol).

[11] = tested on: MDR A. baumannii strain AB5075; assay: microbe, parasite or virus in culture; format: cell-based, Acinetobacter baumannii; conditions: MDR strain AB5075, 24 h
Description: as §2

[12] = tested on: MDR A. baumannii strain AB5075; assay: Rat cutaneous wound model, efficacy; format: in vivo, Sprague-Dawley rats; conditions: rat wound infected with AB5075 (500 CFU), topical 10 mg/ml twice daily
Description: The rat cutaneous wound model was used as described previously ([21]). Protocols for animal studies were approved by the Rutgers University Institutional Animal Care and Use Committee. All animals were humanely euthanized at the study endpoint by following the AVMA Guidelines for the Euthanasia of Animals. Immunocompetent Sprague-Dawley female rats (~200 g) were anesthetized by intraperitoneal injection of 100 mg/kg ketamine plus 10 mg/kg xylazine. Using a 1.0-cm-diameter disposable biopsy punch, two symmetrical wounds were created on the dorsum of each rat. A circular gauze dressing 8 mm in diameter was saturated overnight with either vehicle or 4F at 10 mg/ml in sterile centrifuge tubes. To assess tolerability, the rats were weighed daily and observed for wound healing, behavior changes, and visible adverse drug effects for 5 days. To assess efficacy, A. baumannii strain AB5075 was grown overnight and the culture was diluted to provide the challenge inoculum (500 CFU) as 50 μl of bacterial suspension in 0.9% (wt/vol) NaCl. A circular gauze dressing 8 mm in diameter was saturated overnight with vehicle, tetracycline, or 4F at 10 mg/ml in sterile centrifuge tubes. These saturated dressings were topically applied to the wound site with sterile forceps twice daily, starting at 30 min postinoculation, for 6 days. Rats were observed twice daily for morbidity and possible signs of acute toxicity. Two and four independent cutaneous wounds were tested in tolerability and efficacy assessments, respectively.

Structure (SMILES): CC[C@@H](C)[C@@H](NC(=O)[C@@H](NC(=O)[C@H](CO)NC(=O)[C@H](Cc1ccccc1)NC(=O)[C@@H](CCCN)NC(=O)[C@H](CO)NC(=O)[C@H](CO)NC(=O)[C@@H](Cc1ccccc1)NC(=O)[C@@H](CO)NC(=O)[C@H](NC(=O)[C@@H](CCCN)NC(=O)[C@@H](Cc1ccccc1)NC(C)=O)[C@H](C)CC)C(C)C)C(=O)N[C@@H](CCCN)C(=O)O [4F, paenimucillin C] (Ac-[dF][dOrn][dI][dS][dF]SS[dOrn]FSV[dI][Orn]-OH)
- MIC, toxicity assessment, C. albicans (C. albicans): 128 µg/mL (≈ 84.3 µM)
- MIC for A. baumannii clinical isolate 1790 [1]: 4 µg/mL
- MIC for A. baumannii clinical isolate S5 [2]: 4 µg/mL
- MIC for A. baumannii clinical isolate 1797 [3]: 4 µg/mL
- MIC for A. baumannii clinical isolate S3 [4]: 4 µg/mL
- MIC for A. baumannii clinical isolate 1791 [5]: 2 µg/mL
- MIC for A. baumannii clinical isolate 1788 [6]: 4 µg/mL
- MIC for A. baumannii clinical isolate 1795 [7]: 4 µg/mL
- MIC Pseudomonas aeruginosa (Pseudomonas aeruginosa): 128 µg/mL (≈ 84.3 µM)
- MIC Bacillus subtilis (Bacillus subtilis): 16 µg/mL (≈ 10.5 µM)
- MIC Acinetobacter baumannii (Acinetobacter baumannii): 2 µg/mL (≈ 1.32 µM)
- MIC Enterococcus faecium (Enterococcus faecium): 32 µg/mL (≈ 21.1 µM)
- MIC Enterobacter cloacae (Enterobacter cloacae): 32 µg/mL (≈ 21.1 µM)
- MIC Enterococcus faecalis (Enterococcus faecalis): 64 µg/mL (≈ 42.2 µM)
- MIC Lactobacillus rhamnosus (Lactobacillus rhamnosus): 16 µg/mL (≈ 10.5 µM)
- MIC Streptococcus sobrinus (Streptococcus sobrinus): 16 µg/mL (≈ 10.5 µM)
- MIC Klebsiella pneumoniae (Klebsiella pneumoniae): 4 µg/mL (≈ 2.64 µM)
- MIC Staphylococcus aureus (Staphylococcus aureus): 32 µg/mL (≈ 21.1 µM)
- pore formation relative to Triton X-100 (A. baumannii [8]): ~ 75%
- weight loss ([9]; 5 days, within normal range due to analgesia, two wounds): ≤ 5%
- acute toxicity and change in behavior ([9]; observed 5 days): Neither acute toxicity nor any change in behavior was seen
- membrane depolarization relative to polymyxin (A. baumannii [10]): ~ 25%
- in vitro MIC, A. baumannii AB5075 [11]: 1 µg/mL
- wound sterilization after 1 day [12]: completely sterilized the wounds
- bacterial burden throughout the 5-day study ([12]; P < 0.00001): 0 CFU
